# According to patent US6900220B2, “Quinazolone derivatives as alpha 1A/B adrenergic receptor antagonists” (Syntex (U.S.A.) LLC, priority 2001, dated 2005):
# Counter-ions that a name gives are not always drawn.
# System: anesthetized dog
# Assay: Dog in vivo blood and intraurethral pressure assay
# Conditions: anesthetized mongrel dogs, i.v. bolus, increasing doses
# Procedure: The following describes an in vivo assay for measuring the relative effect of test compounds on hypogastric nerve stimulation-induced increases in intraurethral pressure and phenylephrine-induced increases in diastolic blood pressure in anesthetized dog.
# Mongrel dogs (10 to 20 kg) were fasted for 12 to 18 hours and anesthetized with […] (35 mg/kg, i.v.). An endotracheal tube was inserted and thereafter the lungs were mechanically ventilated with room air. The right femoral vein was isolated and cannulated with two polyethylene cannulae, one for the administration of a continuous infusion of phenobarbital sodium (5 to 10 mg/kg/hr) and the other for bolus administration of test substances. The right femoral artery was isolated and cannulated to the abdominal aorta with a fluid filled polyethylene cannula connected to an external pressure transducer for monitoring diastolic aortic pressure (DAP). The bladder was exposed via a ventral midline abdominal incision and emptied of urine through a 22 gauge needle. The bladder was cannulated through a stab incision with a water filled balloon catheter connected to an external pressure transducer for monitoring prostatic intraurethral pressure (IUP). The right hypogastric nerve (HGN) was carefully isolated and attached to a Dastre's electrode for nerve stimulation. […]
row,SMILES,inhibition of hypogastric nerve (HGN) stimulation-induced increases in intraurethral pressure (IUP) relative to phenylephrine-induced increases in diastolic aortic pressure (DAP)
1,COc1cc2nc(N3CCN(C(=O)c4ccco4)CC3)nc(N)c2cc1OC [prazosin],inhibited increases in IUP and DAP in similar fashion

# System: not given
# Assay: not given
# Conditions: not given
row,melting point [°C],SMILES
1,> 300,"COc1cc2nc(N3CCc4c(cccc4-c4cnccc4N)C3)[nH]c(=O)c2cc1OC (as salt: hydrochloric acid salt) [Compound 902, 2-[5-(4-amino-pyridin-3-yl)-3,4-dihydro-1H-isoquinolin-2-yl]-6,7-dimethoxy-3H-quinazol-4-one]"
2,188.6 to 190.4,"COc1cc2c(cc1OC)CN(c1nc(=O)c3cc(OC)c(OC)cc3[nH]1)CC2 [Compound 105, 2-(6,7-dimethoxy-3,4-dihydro-1H-isoquinolin-2-yl)-6,7-dimethoxy-1H-quinazolin-4-one]"
3,248 to 249.4,"COc1cc2nc(N3CCn4c(cnc4NC4CCCCC4)C3)[nH]c(=O)c2cc1OC [Compound 301, 2-(3-cyclohexylamino-5,6-dihydro-8H-imidazo[1,5-a]pyrazin-7-yl)-6,7-dimethoxy-1H-quinazolin-4-one]"
4,> 300,"COc1cc2[nH]c(N3CCn4c(-c5ccccc5)cnc4C3)nc(=O)c2cc1OC [Compound 904, 6,7-dimethoxy-2-(3-phenyl-5,6-dihydro-8H-imidazo[1,2-α]pyrazin-7-yl)-1H-quinazolin-4-one]"

# More lines, now with the values behind:
row,SMILES,melting point [°C]
1,"COc1cc2nc(N3CCc4c(CN5CCOCC5)cccc4C3)[nH]c(=O)c2cc1OC (as salt: hydrochloric acid salt) [Compound 701, 6,7-Dimethoxy-2-(5-morpholin-4-ylmethyl-3,4-dihydro-1H-isoquinolin-2-yl)-3H-quinazolin-4-one]",227.9 to 229.6
2,"COc1cc2nc(N3CCc4c(cccc4C(=N)N4CCOCC4)C3)[nH]c(=O)c2cc1OC (as salt: hydrochloric acid salt) [Compound 901, 2-[5-(imino-morpholin-4-yl-methyl)-3,4-dihydro-1H-isoquinolin-2-yl]-6,7-dimethoxy-3H-quinazolin-4-one]",249 to 251
3,"COc1cc2nc(N3CCc4c(ncnc4N4CCOCC4)C3)[nH]c(=O)c2cc1OC [Compound 201, 6,7-dimethoxy-2-(4-morpholin-4-yl-5,8-dihydro-6H-pyrido[3,4-d]pyrimidin-7-yl)-3H-quinazolin-4-one]",287.7 to 290.4
4,"COc1cc2nc(N3CCc4c(cccc4S(=O)(=O)N4CCN(C)CC4)C3)[nH]c(=O)c2cc1OC [Compound 401, 6,7-dimethoxy-2-[5-(4-methyl-piperazine-1-sulfonyl)-3,4-dihydro-1H-isoquinolin-2-yl]-3H-quinazolin-4-one]",230 to 237
